The values below come from paper PMC5742831, “Inhibitors of Serine Proteases from a Microcystis sp. Bloom Material Collected from Timurim Reservoir, Israel” (Marine Drugs, 2017).

In one series the target is chymotrypsin (Bos taurus, UniProt P00766). Put plainly: Protease inhibition assay, chymotrypsin. It is filed as biochemical. To be noted: substrate SGGPNA; Tris buffer pH 7.5; 37 °C; 5 min pre-incubation; kinetic absorbance 405 nm over 30 min; dilutions 0.011 µM to 45.5 µM; 4-parameter logistic fit. On the procedure:
A sigmoidal curve of the enzyme inhibition versus the concentration of the inhibitor was observed that was fit to the 4-parameters logistic model. Assays were performed in 96-well plate format.
The assay was performed in a Tris buffer (0.6 g TRIS HCl/100 mL H2O, pH 7.5). The enzyme and the substrate Suc-Gly-Gly-phenylalanine-p-nitroanilide (SGGPNA) were dissolved in the buffer at concentrations of 1 mg/mL. To each well were added 100 µL of buffer, 10 µL of enzyme, and 10 µL of sample. The plate was placed in the spectrophotometer at 37 °C. After 5 min, 100 µL of substrate solution was added to each well, and the plate was placed in the spectrophotometer for the kinetic measurement of the absorbance intensity over 30 min at a wavelength of 405 nm.

The conditions of series [1]: HPLC mobile phase 0.1% TFA/MeCN, six degradation products from TFA catalyzed hydrolysis of the glutamine and Ahp residues, confirmed by LC-MS of the crude extract.

Each structure is given as a SMILES string.

As to `CC(C)C[C@H]1C(=O)N(C)[C@@H](Cc2ccc(O)cc2)C(=O)N[C@@H](C(C)C)C(=O)O[C@H](C)[C@H](NC(=O)[C@H](Cc2ccc(O)cc2)NC(=O)[C@@H](O)Cc2ccc(O)cc2)C(=O)N[C@@H](CCC(N)=O)C(=O)N[C@H]2CC[C@@H](O)N1C2=O` [Micropeptin TR1058 (1)], 6.78 µM corresponded to half-maximal inhibition against chymotrypsin (IC50). In series [1], the “Stability under the isolation conditions” value is recorded as “extremely unstable”.
